Experiments:
ALOMY [1] = experiment: Pre-emergence action against ALOMY, 1280 g/ha; assay type: in vivo, Alopecurus myosuroides; settings: visual scoring after about 3 weeks vs untreated controls, 100% = plants have died, 0% = like control plants
Method in brief: (§1)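 Visual percent-effect ratings (0% = like control, 100% = plants dead) were taken about 3 weeks after pre-emergence soil-surface application of WP/EC aqueous formulations with 0.5% additive, 600 L water/ha. Seeds were sown in sandy loam and grown in the greenhouse.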

DIGSA [2] = experiment: Pre-emergence action against DIGSA, 1280 g/ha; assay type: in vivo, Digitaria sanguinalis; settings: visual scoring after about 3 weeks vs untreated controls, 100% = plants have died, 0% = like control plants
Method in brief: as §1

ECHCG [3] = experiment: Pre-emergence action against ECHCG, 1280 g/ha; assay type: in vivo, Echinochloa crus-galli; settings: visual scoring after about 3 weeks vs untreated controls, 100% = plants have died, 0% = like control plants
Method in brief: as §1

LOLRI [4] = experiment: Pre-emergence action against LOLRI, 1280 g/ha; assay type: in vivo, Lolium rigidum; settings: visual scoring after about 3 weeks vs untreated controls, 100% = plants have died, 0% = like control plants
Method in brief: as §1

POAAN [5] = experiment: Pre-emergence action against POAAN, 1280 g/ha; assay type: in vivo, Poa annua; settings: visual scoring after about 3 weeks vs untreated controls, 100% = plants have died, 0% = like control plants
Method in brief: as §1

SETVI [6] = experiment: Pre-emergence action against SETVI, 1280 g/ha; assay type: in vivo, Setaria viridis; settings: visual scoring after about 3 weeks vs untreated controls, 100% = plants have died, 0% = like control plants
Method in brief: as §1

AMARE [7] = experiment: Pre-emergence action against AMARE, 1280 g/ha; assay type: in vivo, Amaranthus retroflexus; settings: scored visually after about 3 weeks vs untreated controls (100% = plants have died)
Method in brief: as §1

KCHSC [8] = experiment: Pre-emergence action against KCHSC, 1280 g/ha; assay type: in vivo, Bassia scoparia; settings: scored visually after about 3 weeks vs untreated controls (100% = plants have died)
Excerpt: 1. Pre-Emergence Herbicidal Effect and Crop Plant Compatibility a) Seeds of mono- and dicotyledonous weed plants are placed in plastic pots in sandy loam soil (doubly sown with one species each of mono- or dicotyledonous weed plants per pot) and covered with soil. The compounds of the invention, formulated in the form of wettable powders (WP) or as emulsion concentrates (EC), are then applied onto the surface of the covering soil as aqueous suspension or emulsion with addition of 0.5% additive at a water application rate equivalent to 600 litres per hectare. After the treatment, the pots are placed in a greenhouse and kept under good growth conditions for the trial plants. After about 3 weeks, the effect of the preparations is scored visually in comparison with untreated controls as percentages. For example, 100% activity=the plants have died, 0% activity=like control plants. 1. Pre-Emergence Effectiveness Tables 1 to 12 below show the effects of selected compounds of the general formula (I) according to Tables 1 and 2 on various harmful plants and at an application rate corresponding to 1280 g/ha, which were obtained by the experimental procedure mentioned above.

MATIN [9] = experiment: Pre-emergence action against MATIN, 1280 g/ha; assay type: in vivo, Tripleurospermum inodorum (Matricaria inodora); settings: scored visually after about 3 weeks vs untreated controls (100% = plants have died)
Method in brief: as §1

STEME [10] = experiment: Pre-emergence action against STEME, 1280 g/ha; assay type: in vivo, Stellaria media; settings: scored visually after about 3 weeks vs untreated controls (100% = plants have died)
Method in brief: as §1

VERPE [11] = experiment: Pre-emergence action against VERPE, 1280 g/ha; assay type: in vivo, Veronica persica; settings: scored visually after about 3 weeks vs untreated controls (100% = plants have died)
Method in brief: as §1

ALOMY [12] = experiment: Post-emergence action against ALOMY, 1.28 kg/ha; assay type: in vivo, Alopecurus myosuroides; settings: dosage 1280 g/ha, visual rating about 3 weeks after treatment vs untreated controls
Method in brief: (§2)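 Greenhouse-grown weeds (sandy loam, twin-sown pots) were treated 2–3 weeks post-sowing at one leaf. The spray was an aqueous WP/EC preparation plus 0.5% additive, applied at 600 L/ha. Scoring was visual at ~3 weeks, 0–100% versus untreated controls.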

DIGSA [13] = experiment: Post-emergence action against DIGSA, 1.28 kg/ha; assay type: in vivo, Digitaria sanguinalis; settings: dosage 1280 g/ha, visual rating about 3 weeks after treatment vs untreated controls
Method in brief: as §2

ECHCG [14] = experiment: Post-emergence action against ECHCG, 1.28 kg/ha; assay type: in vivo, Echinochloa crus-galli; settings: dosage 1280 g/ha, visual rating about 3 weeks after treatment vs untreated controls
Method in brief: as §2

POAAN [15] = experiment: Post-emergence action against POAAN, 1.28 kg/ha; assay type: in vivo, Poa annua; settings: dosage 1280 g/ha, visual rating about 3 weeks after treatment vs untreated controls
Method in brief: as §2

SETVI [16] = experiment: Post-emergence action against SETVI, 1.28 kg/ha; assay type: in vivo, Setaria viridis; settings: dosage 1280 g/ha, visual rating about 3 weeks after treatment vs untreated controls
Method in brief: as §2

ABUTH = experiment: Post-emergence action against ABUTH, 1.28 kg/ha; assay type: in vivo, Abutilon theophrasti; settings: dosage 1280 g/ha, visual rating about 3 weeks after treatment vs untreated controls (100% = plants died)
Method in brief: as §2

AMARE [17] = experiment: Post-emergence action against AMARE, 1.28 kg/ha; assay type: in vivo, Amaranthus retroflexus; settings: dosage 1280 g/ha, visual rating about 3 weeks after treatment vs untreated controls (100% = plants died)
Method in brief: as §2

KCHSC [18] = experiment: Post-emergence action against KCHSC, 1.28 kg/ha; assay type: in vivo, Bassia scoparia; settings: dosage 1280 g/ha, visual rating about 3 weeks after treatment vs untreated controls (100% = plants died)
Method in brief: as §2

MATIN [19] = experiment: Post-emergence action against MATIN, 1.28 kg/ha; assay type: in vivo, Tripleurospermum inodorum (Matricaria inodora); settings: dosage 1280 g/ha, visual rating about 3 weeks after treatment vs untreated controls (100% = plants died)
Method in brief: as §2

STEME [20] = experiment: Post-emergence action against STEME, 1.28 kg/ha; assay type: in vivo, Stellaria media; settings: dosage 1280 g/ha, visual rating about 3 weeks after treatment vs untreated controls (100% = plants died)
Method in brief: as §2

VERPE [21] = experiment: Post-emergence action against VERPE, 1.28 kg/ha; assay type: in vivo, Veronica persica; settings: dosage 1280 g/ha, visual rating about 3 weeks after treatment vs untreated controls (100% = plants died)
Method in brief: as §2

LOLRI [22] = experiment: Post-emergence action against LOLRI, 1.28 kg/ha; assay type: in vivo, Lolium rigidum; settings: dosage 1280 g/ha, visual rating about 3 weeks after treatment vs untreated controls
Method in brief: as §2

SMILES | Pre-emergence action against DIGSA (DIGSA [2]) | Pre-emergence action against ECHCG (ECHCG [3]) | Pre-emergence action against LOLRI (LOLRI [4]) | Pre-emergence action against POAAN (POAAN [5]) | Pre-emergence action against SETVI (SETVI [6]) | Pre-emergence action against AMARE (AMARE [7]) | Pre-emergence action against KCHSC (KCHSC [8]) | Pre-emergence action against MATIN (MATIN [9]) | Pre-emergence action against STEME (STEME [10]) | Pre-emergence action against VERPE (VERPE [11]) | Post-emergence action against ALOMY (ALOMY [12]) | Post-emergence action against DIGSA (DIGSA [13]) | Post-emergence action against ECHCG (ECHCG [14]) | Post-emergence action against POAAN (POAAN [15]) | Post-emergence action against AMARE (AMARE [17]) | Post-emergence action against KCHSC (KCHSC [18]) | Post-emergence action against MATIN (MATIN [19]) | Post-emergence action against STEME (STEME [20]) | Post-emergence action against VERPE (VERPE [21]) | Post-emergence action against LOLRI (LOLRI [22]) | further results
O=C(O)C1CCCN1C(=O)COc1nn(-c2ccccc2F)c(-c2ccc(F)nc2)c1Br (centres unmarked) [Example X-009] | 90% | 100% | 100% | 100% | 100% | 100% | 90% | 100% | 100% | 100% | 100% | 90% | 100% | 100% | 100% | 90% | 90% | 100% | 100% |  | Pre-emergence action against ALOMY (ALOMY [1]): 100%; Post-emergence action against SETVI (SETVI [16]): 100%; Post-emergence action against ABUTH (ABUTH): 100%
CONC(=O)COc1nn(-c2ccc(F)cc2F)c(-c2ccc(F)nc2)c1Br [Example X-024] | 100% | 100% | 100% | 100% | 100% | 100% | 100% | 100% | 100% | 100% | 100% | 100% | 100% | 100% | 100% | 90% | 90% | 100% | 100% | 100% | Pre-emergence action against ALOMY (ALOMY [1]): 100%; Post-emergence action against SETVI (SETVI [16]): 90%; Post-emergence action against ABUTH (ABUTH): 100%
COC(=O)[C@@H](C)Oc1nn(-c2ccccc2F)c(-c2cncnc2)c1[N+](=O)[O-] [VI-006] | 100% | 100% | 100% | 100% | 100% | 90% | 100% | 100% | 90% | 100% |  | 90% |  | 100% |  | 90% | 100% | 100% | 90% | 100% | 
CCOC(=O)COc1nn(-c2ccc(F)cc2)c(-c2ccc(F)nc2)c1C(F)(F)F [VII-059] | 100% | 100% | 100% | 100% | 100% | 100% | 100% | 90% | 100% | 100% | 100% | 100% | 100% | 100% | 100% | 100% | 100% | 100% | 90% | 100% | Pre-emergence action against ALOMY (ALOMY [1]): 100%
CCOC(=O)COc1nn(-c2ccc(F)cc2)c(-c2ccc(F)nc2)c1Br [VII-065] | 100% | 100% | 100% | 100% | 100% | 100% | 100% | 90% | 100% | 100% | 100% | 100% | 100% | 100% | 90% | 100% | 100% | 100% | 90% | 90% | Pre-emergence action against ALOMY (ALOMY [1]): 100%; Post-emergence action against SETVI (SETVI [16]): 90%; Post-emergence action against ABUTH (ABUTH): 90%
O=C(O)COc1nn(-c2ccc(F)cc2)c(-c2ccc(F)nc2)c1Br [VII-095] | 100% | 100% | 100% | 100% | 100% | 100% | 100% | 90% | 100% | 100% | 100% | 100% | 100% | 100% | 90% | 100% | 100% | 90% | 90% | 100% | Pre-emergence action against ALOMY (ALOMY [1]): 100%; Post-emergence action against SETVI (SETVI [16]): 100%
O=C(O)COc1nn(-c2ccc(F)cc2F)c(-c2ccc(F)nc2)c1Br [VII-100] | 90% |  | 100% | 100% | 90% | 100% | 100% | 100% | 100% | 100% | 100% | 90% | 90% | 100% | 100% | 90% | 90% | 100% | 100% | 100% | Post-emergence action against SETVI (SETVI [16]): 100%; Post-emergence action against ABUTH (ABUTH): 90%

— patent US12180187B2, “1-phenyl-5-azinylpyrazolyl-3-oxyalkyl acids and their use for controlling unwanted plant growth” (BAYER AKTIENGESELLSCHAFT, priority 2019, dated 2024)
